Entries after “also recorded” stand apart in the source; their conditions may differ.
Legend:
mitochondrial biogenesis = details: cited from earlier work
muscle protein synthesis = details: cited from earlier work
[1] = test system: patients with heart failure; details: dietary supplementation; cited from earlier work
[2] = test system: carnitinepalmitoyltransferase (CPT)-1; assay: CPT-1 activity in heart mitochondria of old animals treated with oral propionyl-L-carnitine (FIG. 8); assay type: in vivo, rodent; details: old hearts, oral treatment, p<0.02, n=6
Excerpt: FIG. 8 depicts graphs showing carnitinepalmitoyltransferase (CPT)-1activity decreases with age in mitochondria (2 vs 18 mos, p<0.004).
Appropriate regulation of energy substrate metabolism not only involves relatively normal insulin sensitivity, but also adequate number and functional capacity of mitochondria. One aspect of mitochondrial function is the rate of production of mitochondrial proteins. […] In addition to adequate protein content in mitochondria, it is necessary that substrates, particularly long-chain fatty acids, are not limited in their ability to enter the mitochondria, or in their complete oxidation once inside the mitochondria. The capacity to oxidize fatty acids is reduced in patients with major inflammatory responses due to reduced carnitine palmitoyltransferase 1 (CPT1) activity. Unimpaired capacity to oxidize fatty acids is important because the energy to perform low-intensity exercise, including activities of daily living that individuals with heart failure often struggle with, is provided by the oxidation of fatty acids.

[3] = test system: nitric oxide (NO) synthesis; assay: Isotopic tracer study of plasma arginine and NO synthesis during citrulline ingestion (FIG. 5); assay type: in vivo, human
Protocol: FIG. 5 depicts plasma arginine responses (A) and nitric oxide (NO) synthesis rates (B) in basal period and during ingestion of 3 g of citrulline (CIT) sip ingestion over 3 hours in elderly (n=8, 77±9y, 93±4 kg) and young individuals (n=8, 27±9y, 70±5 kg).
Briefly, elderly (n=8, 77±9y, 93±4 kg) and young individuals (n=8, 27±9y, 70±5 kg) ingested 3 grams of citrulline over 3 hours and plasma arginine response and nitric oxide (NO) synthesis rates were quantified. […] Thus, oral ingestion of citrulline is very effective in increasing peripheral arginine concentration and NO synthesis in elderly subjects with heart failure.

[4] = 3 g citrulline sip ingestion over 3 hours, elderly and young

SMILES: CC(C)C[C@H](N)C(=O)O [leucine]
- mitochondrial biogenesis (mitochondrial biogenesis): stimulate mitochondrial biogenesis

SMILES: N=C(N)NCCC[C@H](N)C(=O)O [arginine]
- effect on muscle protein synthesis when NO synthesis pharmacologically blocked (muscle protein synthesis): effective even when given when NO synthesis was pharmacologically blocked
- blood pressure [1]: reduces blood pressure
- duration until exhaustion on a treadmill walk [1]: increased duration until exhaustion
- right ventricular function [1]: improves right ventricular function

SMILES: CCC(=O)O[C@H](CC(=O)[O-])C[N+](C)(C)C [propionyl-L-carnitine]
- CPT-1 activity in mitochondria [2]: can restore CPT-1 activity to that of young hearts; also recorded: restored CPT to that of young hearts

SMILES: NC(=O)NCCC[C@H](N)C(=O)O [citrulline]
- nitric oxide (NO) synthesis rate [3, 4]: stimulated production of NO
- plasma arginine response [3, 4]: effectively increased the concentration of arginine in the blood
- increase in NO synthesis in elderly ([3]; elderly with heart failure, 3 g citrulline over 3 hours): physiologically significant
